Entries after “also recorded” stand apart in the source; their conditions may differ. Like-named read-outs stand apart in the source and are kept apart here.

Consider 5 sequences from patent publication US12208143B2, “Compositions and methods for transport across the blood brain barrier” (OPHIDION INC., priority 2011, dated 2025).

One series has as its system primary cortical neurons. The series is classed as cell-based, mouse.
Series [1] has as its system lynx1 mRNA. The series can be described thus: lynx1 knock-down by lynx1 siRNA species in cultured cortical neurons (TaqMan qPCR). The series is classed as cell-based, mouse. Conditions: siRNA transfected by Accell method, lynx1 mRNA relative to mock, FIG. 6. (In qPCR the cycle at which signal appears reflects the starting amount.)
Series [2] deals with lynx1 mRNA. Description: siRNA uptake of peptide-lynx1 siRNA complexes into primary neuronal cultures (lynx1 mRNA knock-down, qPCR). Type of series: cell-based. Conditions: 25 uM peptide + 2.5 uM lynx1 siRNA (siRNA1), poly-D arginine linker, 24 hours, primary cortical mouse neurons, FIG. 8.
Series [3] has as its system lynx1 mRNA. Description: Knock-down of lynx1 mRNA after delivery of anti-lynx1 siRNA into cultured cortical neurons via peptide variant-siRNA complexes (qPCR). Type of series: cell-based, mouse.

Regarding EVMEQSAGIMYRKS [lynx2-loop2], the “binding of biotinylated peptide to neurons in culture” value in the series with primary cortical neurons is listed as “did not reliably bind to neurons”.
Turning to “GCACUGAUUUGAUAGAAUU (siRNA; purchased Accell siRNA, chemistry not given here) [siRNA1, SMART pool siRNA A-062811-13 LYNX1, Thermo Scientific/Dharmacon]”, in the series with lynx1 mRNA [1], the “reduction of lynx1 expression” value is listed as “more than 90%”. Besides, the “reduction in lynx1 mRNA compared to no siRNA (Mock)” value with lynx1 mRNA [2] was “no significant reduction in lynx1 mRNA levels”. Besides, the “knock-down of lynx1 mRNA relative to the lynx1-loop2 peptide-siRNA complex” value in the series with lynx1 mRNA [3] (5 μM peptide + 0.5 μM anti-lynx1 siRNA, 24 hours, cultured cortical neurons, lynx1-loop2 set to 100%, siRNA alone set at 0%, FIG. 10) is reported as “did not result in knock-down of lynx1 mRNA”.
Consider MTTRTYATPYRMKVRKS [Mutant 2], for which, in the series with lynx1 mRNA [3], the “knock-down of lynx1 mRNA relative to the lynx1-loop2 peptide-siRNA complex” value is listed as “significantly reduces lynx1-loop2 peptide ability to transport siRNA into neurons; also recorded: not as effective for decreasing lynx1 expression”.
Same read-out and setting: as for MTTRTYFTPYAMADRKS [Mutant 3], the entry is “abolish lynx1-loop2 peptide function; also recorded: not as effective for decreasing lynx1 expression”.
Regarding MTWCDYFTPSRGKVRKS [Mutant 1], in the series with lynx1 mRNA [3], the “decrease of lynx1 mRNA compared to RVG29 and RVG19 complexes” value is “more effective at decreasing levels of lynx1 mRNA compared to RVG29 and RVG19; also recorded: decrease lynx1 mRNA in cultured cortical neurons more effectively than both RVG29 and RVG19”; the “knock-down of lynx1 mRNA relative to the lynx1-loop2 peptide-siRNA complex” value is “as capable of translocating siRNA into neurons as is lynx1-loop2; also recorded: enhanced the knock-down compared to SEQ ID NO:2 peptide; also recorded: capable of decreasing lynx1 expression in cultured cortical neurons as well as a peptide having the sequence of SEQ ID NO:2”.
